From patent US9670250B2, “Alpha-helical peptidomimetic inhibitors and methods using same” (The Trustees of the University of Pennsylvania, priority 2012, dated 2017) come the findings set out here.

One assay concerns the target T1, Cathepsin K (Homo sapiens, UniProt P43235).
T1 sequence (P43235 115-329): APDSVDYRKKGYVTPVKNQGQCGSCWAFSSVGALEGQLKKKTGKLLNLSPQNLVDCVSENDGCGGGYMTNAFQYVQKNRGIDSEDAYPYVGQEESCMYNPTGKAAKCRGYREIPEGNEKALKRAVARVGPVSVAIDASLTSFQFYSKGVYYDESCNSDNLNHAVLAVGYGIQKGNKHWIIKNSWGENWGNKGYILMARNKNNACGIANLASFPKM
Description: in vitro fluorescence-based protease inhibition assay, cathepsin K. The class given is biochemical. The source says:
(§1) Thus, the present invention includes a series of potent and highly specific α-helical inhibitors for papain family cysteine proteases. […] These short α-helical peptidomimetic inhibitors are modeled after the natural pro-domain sequence but contain a cysteine substitution at specific residues in i,i+4 positions, as shown in FIG. 2B. These cysteine residues are used for stabilization of the helix utilizing an appropriate linker (Muppidi, et al., 2011, Chem Commun (Camb) 47:9396-9398). After synthesis, each inhibitor was tested against its respective protease using an in vitro fluorescence-based assay. For each enzyme, at least one inhibitor was identified that is relatively potent and highly specific for its individual protease. These inhibitors can be modified or otherwise optimized to attain higher potency and selectivity through identification of key interactions between the inhibitor and the active site amino acid residues. Such optimization involves visual examination of the protease crystal structure, and substitution with either non-natural or natural amino acids to exploit possible crucial non-covalent protein ligand interactions, such as hydrogen bond, electrostatic, hydrophobic, and Van der Waals interactions.

Another assay deals with T2, Calpain (Calpain-1) (Homo sapiens, UniProt P07384).
T2 sequence (P07384 1-714): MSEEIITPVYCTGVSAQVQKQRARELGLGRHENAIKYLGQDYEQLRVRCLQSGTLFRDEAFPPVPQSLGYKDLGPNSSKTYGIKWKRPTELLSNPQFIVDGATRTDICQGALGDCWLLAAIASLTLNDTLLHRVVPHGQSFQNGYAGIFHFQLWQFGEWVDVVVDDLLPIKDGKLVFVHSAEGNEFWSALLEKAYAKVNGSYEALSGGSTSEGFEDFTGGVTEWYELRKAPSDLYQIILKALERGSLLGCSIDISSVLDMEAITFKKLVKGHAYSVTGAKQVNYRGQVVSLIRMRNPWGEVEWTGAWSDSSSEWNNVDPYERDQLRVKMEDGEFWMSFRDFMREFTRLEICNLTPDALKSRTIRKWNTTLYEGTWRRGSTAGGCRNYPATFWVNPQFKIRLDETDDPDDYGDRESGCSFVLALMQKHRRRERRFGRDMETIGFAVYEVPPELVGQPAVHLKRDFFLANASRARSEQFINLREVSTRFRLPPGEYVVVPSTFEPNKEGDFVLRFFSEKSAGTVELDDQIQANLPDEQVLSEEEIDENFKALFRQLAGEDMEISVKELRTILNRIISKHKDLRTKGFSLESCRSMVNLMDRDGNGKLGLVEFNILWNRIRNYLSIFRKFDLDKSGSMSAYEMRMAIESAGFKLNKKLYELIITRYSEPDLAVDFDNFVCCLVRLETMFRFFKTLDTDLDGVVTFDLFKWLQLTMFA
T2 sequence (P04632 1-268 partner): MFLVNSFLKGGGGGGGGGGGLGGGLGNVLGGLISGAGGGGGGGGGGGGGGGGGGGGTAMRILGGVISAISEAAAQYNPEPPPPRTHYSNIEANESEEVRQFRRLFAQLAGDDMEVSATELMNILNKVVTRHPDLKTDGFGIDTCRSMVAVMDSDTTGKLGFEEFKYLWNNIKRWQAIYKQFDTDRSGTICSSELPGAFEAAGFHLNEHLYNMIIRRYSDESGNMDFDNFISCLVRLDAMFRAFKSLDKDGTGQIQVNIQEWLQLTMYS
The experiment in a line: in vitro fluorescence-based protease inhibition assay, calpain. The class given is biochemical.
Source text: as §1

[1] abbreviates: Table 2, cathepsin S inhibitors.

Starred links: 1 amine or outer side, 2 acyl side, 3 side chain; linkers in the order of their positions; H or OH if unused. Positions of bridges follow the written chain, without caps; N, C: chain ends. Residues, ends and D or L forms follow the SMILES beside them. mXylylene = c1cc(C[*:1])cc(C[*:2])c1

35 (SCELVCKMTGL) [compound 35]: the “Cathepsin K activity” value in the assay with Cathepsin K (between 200-500 nM & 50 μM) is reported as 80% activity. `CSCC[C@H](NC(=O)[C@H](CCCCN)NC(=O)[C@H](CCC(N)=O)NC(=O)[C@@H](NC(=O)[C@@H](NC(=O)[C@H](CCC(=O)O)NC(=O)[C@H](CCC(=O)O)NC(=O)[C@@H](N)CO)C(C)C)C(C)C)C(=O)N[C@H](C(=O)NCC(=O)N[C@@H](CC(C)C)C(=O)O)[C@@H](C)O` [SEQ ID NO:32, SEEVVQKMTGL, reference compound] (H-SEEVVQKMTGL-OH): the “effect on cathepsin K (inhibition or activation), in words” value on Cathepsin K is reported as “did not inhibit”. Regarding `CSCC[C@@H]1NC(=O)[C@H](CC(C)C)NC(=O)[C@H](CO)NC(=O)[C@@H](NC(=O)[C@@H](NC(=O)[C@H](CCC(=O)O)NC(=O)[C@H](CCC(=O)O)NC(=O)[C@H](CO)NC(=O)[C@@H](N)Cc2c[nH]c3ccccc23)C(C)C)CSCc2cccc(c2)CSC[C@@H](C(=O)N[C@@H](CO)C(=O)O)NC1=O` [compound 17] (H-WSEEVCSLMCS-OH; linker 6-10 via mXylylene; N-terminus and C-terminus assumed), the inhibition constant Ki – broadly, the dissociation constant of the complex between target and ligand, obtained from inhibition or displacement – at Cathepsin K (setting [1]) was > 100 µM; on Calpain (Calpain-1) (setting [1]), 108 ± 1.28 µM. `CSCC[C@@H]1NC(=O)[C@H](CC(C)C)NC(=O)[C@H](CO)NC(=O)[C@@H](NC(=O)[C@@H](NC(=O)[C@H](Cc2c[nH]c3ccccc23)NC(=O)[C@H](CCC(=O)O)NC(=O)[C@H](Cc2c[nH]c3ccccc23)NC(=O)[C@@H](N)[C@@H](C)O)C(C)C)CSCc2cccc(c2)CSC[C@@H](C(=O)N[C@@H](CO)C(=O)O)NC1=O` [compound 23] (H-TWEWVCSLMCS-OH; linker 6-10 via mXylylene; N-terminus and C-terminus assumed) had an inhibition constant Ki at Calpain (Calpain-1) (setting [1]) of 88.4 ± 1.13 µM. The same measure, in the same setting: the result for `CSCC[C@@H]1NC(=O)[C@H](CC(C)C)NC(=O)[C@H](CO)NC(=O)[C@@H](NC(=O)[C@@H](NC(=O)[C@H](Cc2c[nH]c3ccccc23)NC(=O)[C@H](CCC(=O)O)NC(=O)[C@H](Cc2c[nH]c3ccccc23)NC(=O)[C@@H](N)Cc2c[nH]c3ccccc23)C(C)C)CSCc2cccc(c2)CSC[C@@H](C(=O)N[C@@H](CO)C(=O)O)NC1=O` [compound 25] (H-WWEWVCSLMCS-OH; linker 6-10 via mXylylene; N-terminus and C-terminus assumed) reads 85.5 ± 1.3 µM.

Consider `CC[C@H](C)[C@H](N)C(=O)N1CCC[C@H]1C(=O)N1CCC[C@H]1C(=O)N[C@@H](CCCCN)C(=O)N[C@@H](Cc1ccc(O)cc1)C(=O)N[C@H]1CSCc2cccc(c2)CSC[C@@H](C(=O)O)NC(=O)[C@H](CC(C)C)NC(=O)[C@H](CC(C)C)NC(=O)[C@H](CCC(=O)O)NC1=O` [compound 65], for which the Ki at Cathepsin K (Table 4, calpain inhibitors) was > 100 µM; on Calpain (Calpain-1) (Table 4, calpain inhibitors), 10.2 ± 2.9 µM. As to `CC(C)C[C@@H]1NC(=O)[C@H](CC(C)C)NC(=O)[C@H](CCC(=O)O)NC(=O)[C@@H](NC(=O)[C@H](Cc2ccc(O)cc2)NC(=O)[C@H](CCCCN)NC(=O)[C@@H]2CCCN2C(=O)[C@@H]2CCCN2C(=O)[C@@H](N)CCC(N)=O)CSCc2cccc(c2)CSC[C@@H](C(=O)O)NC1=O` [compound 76] (H-QPPKYCELLC-OH; linker 6-10 via mXylylene; N-terminus and C-terminus assumed), the Ki on Calpain (Calpain-1) (Table 4, calpain inhibitors) was determined as 35 ± 10.4 µM. As to `CC[C@H](C)[C@H](N)C(=O)N1CCC[C@H]1C(=O)N1CCC[C@H]1C(=O)N[C@@H](CCCCN)C(=O)N[C@@H](C)C(=O)N[C@H]1CSCc2cccc(c2)CSC[C@@H](C(=O)O)NC(=O)[C@H](CC(C)C)NC(=O)[C@H](CC(C)C)NC(=O)[C@H](CCC(=O)O)NC1=O` [compound 81] (H-IPPKACELLC-OH; linker 6-10 via mXylylene; N-terminus and C-terminus assumed), on Calpain (Calpain-1) (Table 4, calpain inhibitors), the inhibitory constant (Ki) is > 100 µM. Turning to `CC[C@H](C)[C@H](N)C(=O)N1CCC[C@H]1C(=O)N1CCC[C@H]1C(=O)N[C@@H](CCCCN)C(=O)N[C@@H](Cc1ccc(O)cc1)C(=O)N[C@H]1CSCc2cccc(c2)CSC[C@@H](C(=O)O)NC(=O)[C@H](CC(C)C)NC(=O)[C@H](C)NC(=O)[C@H](CCC(=O)O)NC1=O` [compound 86] (H-IPPKYCEALC-OH; linker 6-10 via mXylylene; N-terminus and C-terminus assumed), the affinity on Calpain (Calpain-1) (Table 4, calpain inhibitors) corresponds to a Ki of 30.9 ± 9.2 µM.
